In patent publication US20030198674A1, “Controlled release pharmaceutical dosage forms of a cholesteryl ester transfer protein inhibitor” (priority 2002, published 2003):
In brackets after ≈: the same amount, converted by molar mass. Where two headings read alike, the source gives them in different places.

Assays:
[1] = Aqueous solubility of Drug A; format: physicochemical
[2] = Single-dose plasma Drug A concentration vs. time curve fitted to 2-compartment PK model; format: in vivo, Human
Experimental: Pharmacokinetic (PK) constants were derived by fitting this curve to a 2-compartment PK model, assuming a small intestinal transit time of 4 hr, and a gastric emptying time of 15 min.

[3] = Plasma half-life of Drug A; format: in vivo
[4] = 120 mg Drug A, fitted 2-compartment model

## CCOC(=O)N1c2ccc(C(F)(F)F)cc2[C@@H](N(Cc2cc(C(F)(F)F)cc(C(F)(F)F)c2)C(=O)OC)C[C@H]1CC [Drug A, [2R,4S] 4-[(3,5-bis-trifluoromethyl-benzyl)-methoxycarbonyl-amino]-2-ethyl-6-trifluoromethyl-3,4-dihydro-2H-quinoline-1-carboxylic acid ethyl ester]
[1]
  aqueous solubility: about 0.04 microgm/ml
[1]; water (aqueous), accurate measurements, crystalline
  solubility: ~0.01 µg/mL (≈ 0.0167 µM)
[1]; water, read-out: solubility in water
  solubility: < 1 µg/mL
[2]; [4]
  Absorption Ka: 2.27 h⁻¹
  K12: 0.017 h⁻¹
  K21: 0.002 h⁻¹
[2]; calculated from Cl/Vd
  Kel (Elimination Rate Constant): 0.042 h⁻¹
[2]; human, plasma, oral, 120 mg, read-out: Clearance (Cl) (converted)
  clearance: 218 mL/min
[2]; human, plasma, oral, 120 mg, read-out: Volume of distribution (Vd)
  Vd: 174 L
[3]; read-out: additional long terminal elimination half-life
  half-life: 100 to 200 h
[3]; read-out: effective plasma terminal half-life (t1/2)
  half-life: 30 to 70 h
